{
  "source": "patent EP4285905A1",
  "about": "“CABERGOLINE OR A PHARMACEUTICALLY ACCEPTABLE SALT OR SOLVATE THEREOF, FOR USE IN PREVENTION OR DELAY OF POST-PREGNANCY BREAST CANCER IN A FEMALE MAMMAL” (Consejo Superior de Investigaciones Cientificas, priority 2022, dated 2023)",
  "assay_type_in_all_cases": "in vivo",
  "key": {"Brca1/P53-deficient mice [1]": {"system": "Brca1/P53-deficient mice", "assay": "Quantification of adipose and ductal tissue areas in the breast (hematoxylin-eosin, ImageJ)", "conditions": "for adipose tissue area: vs untreated lactating multiparous mice, P < 0.001", "from_the_text": "(§1) Subsequently, the same groups of animals indicated were generated and samples were collected from the mammary glands at 1, 3, 7, 30 and 60 days post-gestation (in non-lactating multiparous) or post-weaning (in lactating multiparous, with and without treatment with cabergoline) (N = 5 mice per group at each time studied).\n(§2) The left inguinal breast of each mouse was embedded in paraffin for further study. Once removed from the animals, the breasts were fixed in 4% paraformaldehyde (Scharlau FO) for 24 hours and, subsequently, they were kept in 70% ethanol at a temperature of 4 °C, until they were processed in the Comparative Molecular Pathology Service of the Salamanca Cancer Research Center. Tissues were dehydrated by three 1-hour incubations in increasing concentrations of ethanol (60%, 80%, and 100%). Three other 1-hour incubations were carried out in xylol, to replace the dehydrating agent with a substance miscible in paraffin. Finally, three other incubations of 1 hour and 20 minutes were carried out with liquid paraffin, after which blocks were made with a mould suitable for the size of the tissue in a paraffin embedding station. When the paraffin blocks were completely cold, 2-µm-thick sections were made using a rotation microtome (Leica RM2255).\nHematoxylin and eosin staining was performed in the Comparative Molecular Pathology Service of the Salamanca Cancer Research Center using a battery of manual staining following the processes: deparaffinization in xylol, rehydration with ethanol at different graduations, hematoxylin and eosin staining, dehydration with ethanol and clearance. Once the process was finished, the samples were mounted by adding a drop of non-aqueous DPX fixative and the coverslip was placed.\nAdipose tissue area and ductal area were evaluated using ImageJ free software. The ductal area was defined as the surface occupied by the epithelium of the ducts together with the surrounding fibrous tissue stroma, excluding the area of the tubular lumen. To evaluate the ductal and adipocyte area, 10 photos were taken at 10X magnification of the surface of the mammary gland of each of the study animals, five photos in the distal area and five in the proximal area of the breast. The photos were taken randomly in each of these areas of the samples stained with hematoxylin-eosin, with a Leica DM1000 light microscope. […] In the proximal area, more adipose tissue and less ductal tissue were observed than in the distal area, and vice versa. For this reason, only the values of the distal zone were determined to carry out the analyses.\nThe quantification was expressed as a percentage of the total area. […]"}, "Brca1/P53-deficient mice [2]": {"system": "Brca1/P53-deficient mice", "assay": "Caspase 3 immunohistochemistry as a marker of apoptosis in the mammary gland", "from_the_text": "as §1\nas §2, with “RM2255). […]” for “RM2255).”\n(§3) To quantify cells positive for Ki-67 or caspase 3, the Leica Application Suite (LAS) V3.7 program was used. […]"}, "Brca1/P53-deficient mice [3]": {"system": "Brca1/P53-deficient mice", "assay": "Ki-67 immunohistochemistry as a proliferation marker in the mammary epithelium", "protocol": "as §1\nKi67 staining was performed at the Comparative Molecular Pathology Service of the Cancer Molecular and Cellular Biology Institute in Salamanca. Sections of the sample were made at 3 µm thickness. Sections were fished onto slides specially treated for this technique (Leica BOND Plus Slides, #S21.2113.A, Leica). The staining process was carried out using the Roche Discovery ULTRA research instrument. The protocol performed by the apparatus is as follows: deparaffinization of the sample, heating the slide to 69 °C; cell conditioning that consisted in the unmasking of the epitope by incubating the sample in a buffer formed by TRIS EDTA pH8 at a temperature of 100 °C for 32 minutes. Next, the primary antibody (Rabbit Anti-Human Ki-67 Monoclonal Antibody (Clone SP6), #MAD-020310Q, Master Diagnostica) was applied manually at a 1:50 dilution and incubated at 37 °C for 60 minutes. After incubation of the primary antibody, two washes with HRP buffer were performed. […]\nas §3"}},
  "data": [
    {"smiles": "C=CCN1C[C@H](C(=O)N(CCCN(C)C)C(=O)NCC)C[C@@H]2c3cccc4[nH]cc(c34)C[C@H]21", "note": "[cabergoline, 1-[(6-allylergolin-8ß-yl)-carbonyl]-1-[3-(dimethylamino)propyl]-3-ethylurea]", "values": [
      {"measurement": "adipose tissue area", "setting": "Brca1/P53-deficient mice [1]; 3 days after weaning", "value": "statistically significant increase in adipose tissue"},
      {"measurement": "adipose tissue area", "setting": "Brca1/P53-deficient mice [1]; 7 days after weaning", "value": "statistically significant increase in adipose tissue"},
      {"measurement": "ductal area", "setting": "Brca1/P53-deficient mice [1]; 30 days post-lactational involution", "value": "drastic decrease in ductal area"},
      {"measurement": "ductal area (epithelial component)", "setting": "Brca1/P53-deficient mice [1]; 60 days post-lactational involution", "value": "great reduction of the epithelial component"},
      {"measurement": "apoptosis (percentage of apoptotic cells positive against caspase 3)", "setting": "Brca1/P53-deficient mice [2]; 3 days of post-lactational involution, vs untreated multiparous mice, P < 0.0001", "value": "significant increase in apoptosis"},
      {"measurement": "basal apoptosis of the epithelium (caspase 3)", "setting": "Brca1/P53-deficient mice [2]; 30 days post-weaning", "value": "greater basal apoptosis of the epithelium"},
      {"measurement": "epithelial proliferation (% of Ki67+ cells)", "setting": "Brca1/P53-deficient mice [3]; 30 days post-weaning", "value": "profound hypoproliferative state"},
      {"measurement": "epithelial proliferation (% of Ki67+ cells)", "setting": "Brca1/P53-deficient mice [3]; 60 days of post-lactational involution", "value": "hypoproliferative state"}
    ]}
  ]
}
